Assay results taken from publication PMC11433870, “Neurotoxicity, Neuroprotection, In Vitro MAOA/MAOB Inhibitory Activity Assessment, Molecular Docking, and Permeability Assay Studies of Newly Synthesized Hydrazones Containing a Pyrrole Ring” (Molecules, 2024).
Values joined by “and” are separate entries in the source; they are usually repeats but may differ in a detail not shown here. Equal values may be shown once.

Tests used:
[1] = system: isolated rat brain synaptosomes; assay: Neurotoxicity: synaptosomal viability (MTT), substances applied alone; format: cell-based; conditions: 50 µM applied alone, 1 h, compared to control (untreated synaptosomes)
Procedure: (§1) Synaptosomes and mitochondria were obtained by multiple, subcellular fractionation using a Percoll gradient. The necessary brain homogenate was prepared and centrifuged at 1000× g for 5 min at +4 °C. After centrifugation, the supernatants were collected and centrifuged again at 1000× g for 5 min at +4 °C. The supernatants from the two centrifugations were mixed and distributed into four tubes. The tubes were centrifuged at 10,000× g for 20 min at +4 °C three times. The last two centrifugations were for purification of synaptosomes and mitochondria.
(§2) The isolation of the required fractions was based on the formation of a colloidal solution of silicon (Percoll), as per the procedure, including: 1. Preparation of a 90% stock solution of Percoll, followed by preparation of two Percoll solutions of different percentages: 16% and 10%. An amount of 4 mL of each of the prepared 16% and 10% Percoll solutions was placed in six test tubes. A 90% Percoll (7.5% Percoll) was added to the precipitate obtained from the previous step from the last centrifugation. The obtained mixtures in all 12 tubes were centrifuged for 20 min at 15,000× g +4 °C. After centrifugation, three layers are formed in the tubes. The bottom layer contains mitochondria, the top layer contains lipids, and the middle layer—at the 16% to 10% Percoll limit—contains synaptosomes. The respective layer from each tube is removed through a glass pasteurizer and collected into one. Buffer B + glucose is added to it. The mixture was centrifuged at 10,000× g for 20 min at +4 °C. Thus, the isolation buffer is exchanged with the incubation buffer. After centrifugation, the pellet where the synaptosomes are mixed and made up with buffer B + glucose.
(§3) Synaptosomes and mitochondria were incubated with the test substances at a concentration of 50 µM for 1 h.
After 1 h incubation with the substances and toxic agent, synaptosomes were centrifuged on a microcentrifuge for 1 min at 15,000× g. The pellet was mixed gently with buffer B + glucose, and the supernatant where 6-OHDA was discarded to prevent oxidation of MTT. Centrifuge again at 15,000× g for 1 min. After the second wash, buffer B + glucose was added to the pellet. To the ‘washed’ synaptosomes, 60 µL of MTT solution is added. The plates were incubated with the MTT solution at 37 °C for 10 min. After incubation, the samples were centrifuged at 15,000× g for 2 min. The excess liquid was removed, and a DMSO solution was used to dissolve the formed formazan crystals. After dissolution, the amount of formazan is measured spectrophotometrically at λ = 580 nm.

[2] = system: isolated rat brain synaptosomes; assay: Neurotoxicity: reduced glutathione (GSH) level in synaptosomes, substances applied alone; format: cell-based; conditions: 50 µM applied alone, 1 h, compared to control
Procedure: as §1, §2, §3
(§4) After precipitation of the proteins with trichloroacetic acid, the thiol groups in the supernatant were determined by DTNB, which produced a yellow-colored compound that absorbs light at λ = 412 nm. After incubation, synaptosomes were centrifuged at 4000× g for 3 min. The supernatant was removed and the pellet taken for GSH determination. It was treated with 5% trichloroacetic acid, then left for 10 min on ice. It was centrifuged at 8000× g for 10 min (2 °C). The supernatant is taken for GSH determination and frozen at −20 °C. Immediately before measurement, the samples are neutralized with 5N NaOH [58].

[3] = system: isolated rat brain mitochondria; assay: Neurotoxicity: MDA production in brain mitochondria, substances applied alone; format: cell-based; conditions: 50 µM applied alone, compared to control
Procedure: as §1, §2, §3
To the mitochondria was added 0.3 mL of 0.2% thiobarbituric acid and 0.25 mL of sulfuric acid (0.05 M), and the mixture was boiled for 30 min. After boiling, the tubes were placed on ice, and 0.4 mL of n-butanol was added to each, then centrifuged at 3500× g for 10 min. The amount of MDA was determined spectrophotometrically at 532 nm.

[4] = system: isolated rat brain mitochondria; assay: Neurotoxicity: GSH level in brain mitochondria, substances applied alone; format: cell-based; conditions: 50 µM applied alone, compared to control
Procedure: as §1, §2
[…]. After centrifugation of the homogenate at 6000× g, a 0.04% solution of DTNB was added to the supernatant to give a yellow color, the determination being spectrophotometric at 412 nm.

[5] = system: isolated rat brain microsomes; assay: Neurotoxicity: MDA production in brain microsomes, substances applied alone; format: cell-based; conditions: 50 µM applied alone, compared to control
Procedure: (§5) The brain was homogenized in 9 volume parts of 0.1 M Tris buffer containing: 0.1 mM dithiothreitol, 0.1 mM phenylmethylsulfonyl fluoride, 0.2 mM EDTA, 1.15% KCl, and 20% (v/v) glycerol (pH 7.4). The resulting homogenate was centrifuged twice at 17,000× g for 30 min. The supernatants from the two centrifugations were pooled and centrifuged twice at 100,000× g for 1 h. The pellet was frozen in 0.1 M Tris buffer.
(§6) After completion of incubation of the microsomes with the substances and toxic agent, the reaction was stopped by the addition of 0.5 mL of 20% trichloroacetic acid, followed by 0.5 mL of 0.67% thiobarbituric acid. The ongoing reactions are associated with the formation of a colored complex between the malondialdehyde formed and thiobarbituric acid. The determination of MDA was spectrophotometric at 535 nm. A molar extinction coefficient of […] was used for the calculation.

[6] = system: isolated rat brain synaptosomes; assay: 6-OHDA-induced neurotoxicity model: GSH level; format: cell-based; conditions: for preservation of GSH level: 50 µM in combination with 6-OHDA (150 µM), compared to the toxic agent
Procedure: as §1, §2, §3
Synaptosomes were incubated with 6-OHDA (150 μM) for 1 h.
as §4

[7] = system: isolated rat brain microsomes; assay: Fe2+/AA-induced non-enzyme lipid peroxidation model: MDA production; format: cell-based; conditions: 50 µM in combination with Fe2+/AA, compared to the toxic agent
Procedure: as §5
Non-enzyme-induced lipid peroxidation was induced with 20 μM ferrous sulfate solution and 0.5 mM ascorbic acid solution [62].
as §6

[8] = target: T1, human recombinant MAOA enzyme (hMAOA) (Homo sapiens, UniProt P21397); assay: Human recombinant MAOA enzyme activity (fluorometric, Amplex Red); format: biochemical; conditions: read-out: IC50 (EC50), (µM ± SD) hMAOA
T1 sequence (P21397 1-527): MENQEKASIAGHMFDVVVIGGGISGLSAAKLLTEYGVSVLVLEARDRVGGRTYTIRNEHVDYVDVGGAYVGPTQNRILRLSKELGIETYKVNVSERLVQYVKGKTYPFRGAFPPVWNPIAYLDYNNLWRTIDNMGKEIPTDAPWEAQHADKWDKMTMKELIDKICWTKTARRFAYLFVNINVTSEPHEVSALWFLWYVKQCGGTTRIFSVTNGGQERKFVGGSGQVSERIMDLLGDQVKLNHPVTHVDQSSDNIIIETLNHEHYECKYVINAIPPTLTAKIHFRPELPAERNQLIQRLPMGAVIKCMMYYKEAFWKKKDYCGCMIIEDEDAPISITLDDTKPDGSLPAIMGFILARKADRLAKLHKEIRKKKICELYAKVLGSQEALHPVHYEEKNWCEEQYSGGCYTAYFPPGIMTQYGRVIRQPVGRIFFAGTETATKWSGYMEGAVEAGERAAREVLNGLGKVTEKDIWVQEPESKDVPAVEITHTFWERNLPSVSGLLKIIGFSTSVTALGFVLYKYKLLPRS
Procedure: (§7) The activity of recombinant human MAOA/B was determined fluorometrically. Tyramine hydrochloride was used as substrate. The activity is determined by detection of H2O2 production. This production is in turn reported by binding to horseradish peroxidase using N-acetyl-3,7-dihydroxyphenoxazine (AmplexRed, Thermo Fisher Scientific, Waltham, MA, USA) [63].
(§8) Working solutions of the test substances, reagents, and human recombinant MAOA/B enzyme (hMAOA/B) were prepared in reaction buffer according to the manufacturer’s instructions. A pure working solution of MAOA/B in reaction buffer, a working solution of MAOA/B containing hydrogen peroxide, and a pure reaction buffer were used as controls. Substances were applied at a final concentration of 1 µM. The substances together with hMAOB were placed in a 96-well plate (8 samples for each substance), and then the plate was placed in an incubator for 30 min (in the dark, at 37 °C). Fluorimetric readings were performed in a Synergy 2 Microplate Reader at two wavelengths (570 nm and 690 nm).

[9] = target: T2, human recombinant MAOB enzyme (hMAOB) (Homo sapiens, UniProt P27338); assay: Human recombinant MAOB enzyme activity (fluorometric, Amplex Red); format: biochemical; conditions: for inhibition at 1 µM: compared to control (pure hMAOB); for IC50: read-out: IC50 (EC50), (µM ± SD) hMAOB;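 on all read-outs here: tyramine as substrate, H2O2 formation detected by horseradish peroxidase coupled Amplex Red fluorescence read at 570 and 690 nm, compounds incubated with enzyme 30 min at 37 °C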
T2 sequence (P27338 1-520): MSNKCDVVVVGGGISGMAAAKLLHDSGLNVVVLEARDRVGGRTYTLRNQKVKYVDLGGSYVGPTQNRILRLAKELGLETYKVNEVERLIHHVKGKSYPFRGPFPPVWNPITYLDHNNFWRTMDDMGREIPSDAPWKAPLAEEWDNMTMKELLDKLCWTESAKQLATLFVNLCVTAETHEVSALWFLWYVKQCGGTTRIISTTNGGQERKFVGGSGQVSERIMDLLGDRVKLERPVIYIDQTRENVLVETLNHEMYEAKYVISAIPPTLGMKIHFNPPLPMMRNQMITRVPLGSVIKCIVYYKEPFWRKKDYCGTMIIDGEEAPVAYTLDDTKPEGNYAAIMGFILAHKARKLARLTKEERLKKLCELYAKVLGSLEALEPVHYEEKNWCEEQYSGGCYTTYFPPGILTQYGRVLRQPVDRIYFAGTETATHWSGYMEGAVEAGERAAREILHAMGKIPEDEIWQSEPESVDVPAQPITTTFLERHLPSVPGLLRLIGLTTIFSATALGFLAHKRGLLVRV
Procedure: as §7, §8

[10] = pH 7.4, 50 µM, 4 h, 25 °C; Pe calculated in 10^−6 cm/s, presented as −logPe
[11] = system: isolated rat brain mitochondria; assay: t-BuOOH-induced oxidative stress model: GSH level; conditions: 50 µM in combination with t-BuOOH (75 µM), compared to the toxic agent
[12] = system: isolated rat brain mitochondria; assay: t-BuOOH-induced oxidative stress model: MDA production; conditions: 50 µM in combination with t-BuOOH (75 µM), compared to the toxic agent
[13] = system: isolated rat brain synaptosomes; assay: 6-OHDA-induced neurotoxicity model: synaptosomal viability; format: cell-based; conditions: toxic agent applied alone at 150 µM, compared to control (untreated synaptosomes)
Procedure: as §1
The isolation of the required fractions was based on the formation of a colloidal solution of silicon (Percoll), as per the procedure, including: 1. Preparation of a 90% stock solution of Percoll, followed by preparation of two Percoll solutions of different percentages: 16% and 10%. An amount of 4 mL of each of the prepared 16% and 10% Percoll solutions was placed in six test tubes. A 90% Percoll (7.5% Percoll) was added to the precipitate obtained from the previous step from the last centrifugation. The obtained mixtures in all 12 tubes were centrifuged for 20 min at 15,000× g +4 °C. […]
After 1 h incubation with the substances and toxic agent, synaptosomes were centrifuged on a microcentrifuge for 1 min at 15,000× g. […] After dissolution, the amount of formazan is measured spectrophotometrically at λ = 580 nm.

Row | SMILES | decrease of synaptosomal viability [1] | decrease of glutathione (GSH) level [2] | increase of MDA production [3] | decrease of GSH level [4] | increase of MDA production [5] | preservation of GSH level [6] | decrease of MDA production [7] | IC50 [8] | SI: hMAOB selectivity index = IC50(hMAOA)/IC50(hMAOB) [9] | inhibition at 1 µM [9] | IC50 [9] | PAMPA BBB −logPe [10] | preservation of GSH level [11] | reduction of MDA production [12] | decrease in synaptosomal viability by toxic agent alone [13] | decrease in GSH level by toxic agent alone ([6]; toxic agent applied alone at 150 µM, compared to control)
1 | CCOC(=O)c1cc(-c2ccc(Br)cc2)n(CC(=O)NN=Cc2ccc([N+](=O)[O-])cc2)c1C [7c] | 35% | 20% | 53% | 25% | 51% | 50% | 35% | > 100 µM | >123 | 25% | 0.815 ± 0.2 µM | 4.601 ± 0.040 | 40% | 18% |  | 
2 | CCOC(=O)c1cc(-c2ccc(Br)cc2)n(CC(=O)NN=Cc2ccc(N(C)C)cc2)c1C [7a] | 30% | 25% | 63% | 20% | 54% | 50% | 34% | > 100 µM | >123 | 20% | 0.812 ± 0.1 µM | 4.849 ± 0.043 | 40% | 14% |  | 
3 | NCCc1cc(O)c(O)cc1O [6-OHDA, 6-hydroxydopamine, reference compound] |  |  |  |  |  |  |  |  |  |  |  |  |  |  | 50% | 50%
4 | CCOC(=O)c1cc(-c2ccc(Br)cc2)n(CCC(=O)NN=Cc2ccc(OC)cc2OC)c1C [8e] | 35% | 20% | 69% | 25% | 63% | 50% | 25% | > 100 µM | >122 | 20% | 0.817 ± 0.09 µM | 5.714 and 5.714 ± 0.041 | 60% | 11% |  | 
5 | CCOC(=O)c1cc(-c2ccc(Br)cc2)n(CC(=O)NN=Cc2ccc(Cl)cc2)c1C [7b] | 25% | 15% | 43% | 15% | 40% | 60% | 46% | > 100 µM | >181 | 40% | 0.551 ± 0.1 µM | 4.416 ± 0.022 and 4.416 | 70% | 28% |  | 
6 | CCOC(=O)c1cc(-c2ccc(Br)cc2)n(CCC(=O)NN=Cc2ccc(Cl)cc2)c1C [8b] | 30% | 20% | 52% | 20% | 51% | 50% | 31% | > 100 µM | >123 | 25% | 0.815 ± 0.1 µM | 4.444 ± 0.004 | 50% | 9% |  | 
